Data reported in the CheMixHub viscosity set.
Where “and” joins values, the source holds several entries; their conditions need not be identical. Identical values can stand only once. ± gives the uncertainty stated by the source.

Assay: xn = mol fraction of the nth substance listed

O=C1CCCN1 + O
Conditions	viscosity [mPa·s]
298.15 K, 100 kPa, x1 = 0.0115	1.015 ± 0.013
298.15 K, 100 kPa, x1 = 0.0189	1.099 ± 0.013
298.15 K, 100 kPa, x1 = 0.0287	1.211 ± 0.014
298.15 K, 100 kPa, x1 = 0.0388	1.328 ± 0.015
298.15 K, 100 kPa, x1 = 0.0505	1.472 ± 0.016
298.15 K, 100 kPa, x1 = 0.0598	1.591 ± 0.016
298.15 K, 100 kPa, x1 = 0.0698	1.725 ± 0.017
298.15 K, 100 kPa, x1 = 0.0803	1.875 ± 0.019
298.15 K, 100 kPa, x1 = 0.0898	2.013 ± 0.02
298.15 K, 100 kPa, x1 = 0.1007	2.241 ± 0.026
298.15 K, 100 kPa, x1 = 0.1507	3.167 ± 0.03
298.15 K, 100 kPa, x1 = 0.2024	4.25 ± 0.042
298.15 K, 100 kPa, x1 = 0.2554	5.425 ± 0.056
298.15 K, 100 kPa, x1 = 0.3052	6.531 ± 0.07
298.15 K, 100 kPa, x1 = 0.3568	7.599 ± 0.085
298.15 K, 100 kPa, x1 = 0.4091	8.579 ± 0.099
298.15 K, 100 kPa, x1 = 0.4579	9.388 ± 0.11
298.15 K, 100 kPa, x1 = 0.5569	10.69 ± 0.13
298.15 K, 100 kPa, x1 = 0.6612	11.65 ± 0.15
298.15 K, 100 kPa, x1 = 0.7216	12.08 ± 0.15
298.15 K, 100 kPa, x1 = 0.8231	12.63 ± 0.16
298.15 K, 100 kPa, x1 = 0.8637	12.82 ± 0.17
298.15 K, 100 kPa, x1 = 0.9213	13.08 ± 0.17
298.15 K, 100 kPa, x1 = 0.9301	13.11 ± 0.17
298.15 K, 100 kPa, x1 = 0.9395	13.16 ± 0.17
298.15 K, 100 kPa, x1 = 0.9491	13.18 ± 0.17
298.15 K, 100 kPa, x1 = 0.9588	13.21 ± 0.17
298.15 K, 100 kPa, x1 = 0.969	13.22 ± 0.17
298.15 K, 100 kPa, x2 = 0.0105	13.3 ± 0.17
304.15 K, 101.33 kPa, x2 = 0.1162	10.05 ± 0.27
304.15 K, 101.33 kPa, x2 = 0.1885	9.771 ± 0.26
304.15 K, 101.33 kPa, x2 = 0.2962	9.28 ± 0.25
304.15 K, 101.33 kPa, x2 = 0.407	8.553 ± 0.23
304.15 K, 101.33 kPa, x2 = 0.5061	7.697 ± 0.2
304.15 K, 101.33 kPa, x2 = 0.5975	6.611 ± 0.18
304.15 K, 101.33 kPa, x2 = 0.6831	5.353 ± 0.14
304.15 K, 101.33 kPa, x2 = 0.8066	3.322 ± 0.089
304.15 K, 101.33 kPa, x2 = 0.9019	1.885 ± 0.052
308.15 K, 101 kPa, x1 = 0.0921	1.572 ± 0.095
308.15 K, 101 kPa, x1 = 0.1915	2.467 ± 0.14
308.15 K, 101 kPa, x1 = 0.315	3.573 ± 0.2
308.15 K, 101 kPa, x1 = 0.4027	4.339 ± 0.25
308.15 K, 101 kPa, x1 = 0.519	5.43 ± 0.3
308.15 K, 101 kPa, x1 = 0.5927	6.176 ± 0.33
308.15 K, 101 kPa, x1 = 0.6947	6.828 ± 0.36
308.15 K, 101 kPa, x1 = 0.7877	7.493 ± 0.38
308.15 K, 101 kPa, x1 = 0.9207	8.425 ± 0.42
308.15 K, 101.33 kPa, x2 = 0.1162	8.702 ± 0.23
308.15 K, 101.33 kPa, x2 = 0.1885	8.419 ± 0.23
308.15 K, 101.33 kPa, x2 = 0.2962	7.958 ± 0.21
308.15 K, 101.33 kPa, x2 = 0.407	7.333 ± 0.2
308.15 K, 101.33 kPa, x2 = 0.5061	6.591 ± 0.18
308.15 K, 101.33 kPa, x2 = 0.5975	5.665 ± 0.15
308.15 K, 101.33 kPa, x2 = 0.6831	4.612 ± 0.12
308.15 K, 101.33 kPa, x2 = 0.8066	2.917 ± 0.078
308.15 K, 101.33 kPa, x2 = 0.9019	1.69 ± 0.045
313.15 K, 101 kPa, x1 = 0.0803	1.274 ± 0.01
313.15 K, 101 kPa, x1 = 0.1598	2.074 ± 0.016
313.15 K, 101 kPa, x1 = 0.2476	3.053 ± 0.024
313.15 K, 101 kPa, x1 = 0.3087	3.73 ± 0.029
313.15 K, 101 kPa, x1 = 0.4	4.641 ± 0.037
313.15 K, 101 kPa, x1 = 0.4668	5.207 ± 0.041
313.15 K, 101 kPa, x1 = 0.5478	5.763 ± 0.046
313.15 K, 101 kPa, x1 = 0.6434	6.298 ± 0.05
313.15 K, 101 kPa, x1 = 0.7195	6.627 ± 0.052
313.15 K, 101 kPa, x1 = 0.7991	6.924 ± 0.055
313.15 K, 101 kPa, x1 = 0.8781	7.184 ± 0.057
313.15 K, 101 kPa, x1 = 0.9585	7.432 ± 0.059
313.15 K, 101.33 kPa, x2 = 0.1162	7.3 ± 0.2
313.15 K, 101.33 kPa, x2 = 0.1885	7.066 ± 0.19
313.15 K, 101.33 kPa, x2 = 0.2962	6.647 ± 0.18
313.15 K, 101.33 kPa, x2 = 0.407	6.111 ± 0.16
313.15 K, 101.33 kPa, x2 = 0.5061	5.506 ± 0.15
313.15 K, 101.33 kPa, x2 = 0.5975	4.74 ± 0.13
313.15 K, 101.33 kPa, x2 = 0.6831	3.873 ± 0.1
313.15 K, 101.33 kPa, x2 = 0.8066	2.495 ± 0.067
313.15 K, 101.33 kPa, x2 = 0.9019	1.483 ± 0.039
318.15 K, 101.33 kPa, x2 = 0.1162	6.211 ± 0.17
318.15 K, 101.33 kPa, x2 = 0.1885	5.985 ± 0.16
318.15 K, 101.33 kPa, x2 = 0.2962	5.641 ± 0.15
318.15 K, 101.33 kPa, x2 = 0.407	5.164 ± 0.14
318.15 K, 101.33 kPa, x2 = 0.5061	4.656 ± 0.12
318.15 K, 101.33 kPa, x2 = 0.5975	4.004 ± 0.11
318.15 K, 101.33 kPa, x2 = 0.6831	3.308 ± 0.089
318.15 K, 101.33 kPa, x2 = 0.8066	2.165 ± 0.058
318.15 K, 101.33 kPa, x2 = 0.9019	1.313 ± 0.035
323.15 K, 101.33 kPa, x2 = 0.1162	5.336 ± 0.14
323.15 K, 101.33 kPa, x2 = 0.1885	5.14 ± 0.14
323.15 K, 101.33 kPa, x2 = 0.2962	4.823 ± 0.13
323.15 K, 101.33 kPa, x2 = 0.407	4.414 ± 0.12
323.15 K, 101.33 kPa, x2 = 0.5061	3.987 ± 0.11
323.15 K, 101.33 kPa, x2 = 0.5975	3.433 ± 0.092
323.15 K, 101.33 kPa, x2 = 0.6831	2.845 ± 0.077
323.15 K, 101.33 kPa, x2 = 0.8066	1.901 ± 0.051
323.15 K, 101.33 kPa, x2 = 0.9019	1.173 ± 0.031

OCCCCO + O
viscosity
Conditions	298.15 K	303.15 K	308.15 K	313.15 K	318.15 K	323.15 K
101 kPa, x1 = 0.0099	–	0.933 ± 0.009 mPa·s	0.836 ± 0.008 mPa·s	0.755 ± 0.007 mPa·s	0.687 ± 0.007 mPa·s	0.63 ± 0.006 mPa·s
101 kPa, x1 = 0.0201	–	1.09 ± 0.01 mPa·s	0.971 ± 0.009 mPa·s	0.871 ± 0.008 mPa·s	0.788 ± 0.008 mPa·s	0.718 ± 0.007 mPa·s
101 kPa, x1 = 0.0299	–	1.256 ± 0.012 mPa·s	–	0.989 ± 0.009 mPa·s	0.89 ± 0.009 mPa·s	0.806 ± 0.008 mPa·s
101 kPa, x1 = 0.0399	–	1.429 ± 0.013 mPa·s	1.256 ± 0.012 mPa·s	1.113 ± 0.01 mPa·s	0.998 ± 0.009 mPa·s	0.899 ± 0.009 mPa·s
101 kPa, x1 = 0.05	1.94 ± 0.05 mPa·s	1.625 ± 0.015 mPa·s	1.48 ± 0.04 mPa·s and 1.424 ± 0.013 mPa·s	1.258 ± 0.012 mPa·s	1.14 ± 0.03 mPa·s and 1.12 ± 0.011 mPa·s	1.004 ± 0.01 mPa·s
101 kPa, x1 = 0.0599	–	1.838 ± 0.017 mPa·s	1.595 ± 0.015 mPa·s	1.4 ± 0.013 mPa·s	1.243 ± 0.012 mPa·s	1.11 ± 0.01 mPa·s
101 kPa, x1 = 0.0699	–	2.057 ± 0.019 mPa·s	1.781 ± 0.016 mPa·s	1.559 ± 0.014 mPa·s	1.376 ± 0.013 mPa·s	–
101 kPa, x1 = 0.075	2.65 ± 0.06 mPa·s	–	1.93 ± 0.05 mPa·s	–	1.44 ± 0.04 mPa·s	–
101 kPa, x1 = 0.08	–	2.298 ± 0.021 mPa·s	1.982 ± 0.018 mPa·s	1.724 ± 0.016 mPa·s	1.518 ± 0.014 mPa·s	1.347 ± 0.013 mPa·s
101 kPa, x1 = 0.0901	–	2.553 ± 0.023 mPa·s	2.192 ± 0.02 mPa·s	1.901 ± 0.017 mPa·s	1.666 ± 0.015 mPa·s	1.472 ± 0.014 mPa·s
101 kPa, x1 = 0.1	3.397 ± 0.027 mPa·s	2.818 ± 0.025 mPa·s and 2.803 ± 0.023 mPa·s	2.44 ± 0.06 mPa·s and 2.404 ± 0.022 mPa·s and 2.514 ± 0.021 mPa·s	2.079 ± 0.019 mPa·s	1.84 ± 0.04 mPa·s and 1.817 ± 0.017 mPa·s	1.602 ± 0.015 mPa·s
101 kPa, x1 = 0.15	5.39 ± 0.12 mPa·s	–	3.78 ± 0.09 mPa·s	–	2.68 ± 0.06 mPa·s	–
101 kPa, x1 = 0.2	7.88 ± 0.17 mPa·s	–	5.24 ± 0.11 mPa·s	–	3.72 ± 0.08 mPa·s	–
101 kPa, x1 = 0.2001	9.496 ± 0.065 mPa·s	7.867 ± 0.055 mPa·s	–	–	–	–
101 kPa, x1 = 0.3007	13.82 ± 0.09 mPa·s	11.16 ± 0.08 mPa·s	9.319 ± 0.064 mPa·s	–	–	–
101 kPa, x1 = 0.4	21.4 ± 0.35 mPa·s	–	–	–	9.25 ± 0.15 mPa·s	–
101 kPa, x1 = 0.4006	21 ± 0.14 mPa·s	16.91 ± 0.11 mPa·s	13.99 ± 0.09 mPa·s	–	–	–
101 kPa, x1 = 0.4977	29.42 ± 0.19 mPa·s	23.41 ± 0.15 mPa·s	19.16 ± 0.13 mPa·s	–	–	–
101 kPa, x1 = 0.6	41.4 ± 0.48 mPa·s	–	25 ± 0.29 mPa·s	–	16.2 ± 0.19 mPa·s	–
101 kPa, x1 = 0.6002	38.85 ± 0.25 mPa·s	30.89 ± 0.2 mPa·s	25.12 ± 0.16 mPa·s	–	–	–
101 kPa, x1 = 0.6982	47.66 ± 0.31 mPa·s	38.2 ± 0.25 mPa·s	30.3 ± 0.2 mPa·s	–	–	–
101 kPa, x1 = 0.7993	56.65 ± 0.31 mPa·s	44.81 ± 0.29 mPa·s	36.18 ± 0.23 mPa·s	–	–	–
101 kPa, x1 = 0.8	60.5 ± 0.42 mPa·s	–	36.9 ± 0.28 mPa·s	–	23.8 ± 0.18 mPa·s	–
101 kPa, x1 = 0.8969	63.9 ± 0.42 mPa·s	48.65 ± 0.31 mPa·s	–	–	–	–
101 kPa, x1 = 0.9	68.4 ± 0.53 mPa·s	–	40.3 ± 0.25 mPa·s	–	27.1 ± 0.17 mPa·s	–
101.3 kPa, x1 = 0.7917	–	–	–	29.65 ± 2 mPa·s	–	–
101.3 kPa, x2 = 0.4531	33.95 ± 0.15 mPa·s	–	–	–	–	–
101.3 kPa, x2 = 0.6513	18.65 ± 0.099 mPa·s	–	–	–	–	–
